The text below walks through data of ChEMBL document CHEMBL3286190, “Discovery of antitubulin agents with antiangiogenic activity as single entities with multitarget chemotherapy potential” (ACS Med Chem Lett, 2014).

Series [1] has as its system MDA-MB-435. To be noted: Homo sapiens, 25 mg/kg.
Description: Antitumor activity against human MDA-MB-435 cells xenografted into flank of athymic BALBc/J mouse assessed as decrease in tumor growth at 25 mg/kg twice weekly measured up to 34 days
The test system of series [2] is MDA-MB-435. Description: Induction of apoptosis in human MDA-MB-435 cells assessed as caspase 3 cleavage at IC50 concentration after 48 hrs by Western blotting analysis. It counts as functional, cell-based. For orientation: A western blot detects proteins with antibodies after separation by electrophoresis.
The target of a further series is Tubulin (Bos taurus, UniProt Q6B856+Q862L2+Q862F3). Description: Inhibition of bovine brain tubulin assembly preincubated for 15 mins followed by GTP addition measured for 20 mins by spectrophotometry.
The test system of series [3] is Mus musculus. Description: Toxicity in BALBc/J mouse allografted with mouse 4T1 cells at 25 mg/kg twice weekly measured up to 32 days. It counts as organism-based. Set-up: dose 25 mg/kg. The following applies: in vivo, 768 h.
For a further series, the target named is Tubulin (Homo sapiens) (UniProt P68371+Q9H4B7+P0DPH7+P68366+Q13509+Q71U36+P04350+Q3ZCM7+P07437+P68363+Q9BQE3+Q6PEY2+Q13885+Q9BVA1+Q9BUF5). The experiment in a line: Displacement of [3H]-colchicine from tubulin (unknown origin) at 50 uM relative to control. It counts as protein-complex assay. For orientation: Loss of bound radioactivity is the signal in a displacement assay; it reports binding, not function.

The subject of a further series is NCI/ADR-RES. Description: Growth inhibition of human NCI/ADR-RES cells overexpressing P-gp after 96 hrs incubation by sulforhodamine B technique. It counts as functional, cell-based.
Another series relates to Chorioallantoic membrane. Description: tissue or blood. The following applies: Gallus gallus.
For the next series, the species on record is Homo sapiens. The experiment in a line: Disruption of microtubule organization in human MDA-MB-435 cells at IC50 concentration after 2 hrs by immunofluorescence assay. In kind it is cell-based.
For series [4], the system named is Mus musculus. Description: Toxicity in athymic NCr mouse xenografted with human U251 cells at 25 mg/kg twice weekly measured up to 34 days. It counts as organism-based, U-251. Set-up: dose 25 mg/kg. To be noted: in vivo, 816 h. On the technique in general: A xenograft is tissue or cells of one species grown in another, often human tumour cells in immunodeficient mice.

The nature of series [5]: Growth inhibition of human OVCAR8 cells after 96 hrs incubation by sulforhodamine B technique. It counts as functional, cell-based. To be noted: OVCAR-8, 96 h.
Series [6] has as its system MDA-MB-435. The experiment in a line: Induction of apoptosis in human MDA-MB-435 cells assessed as PARP cleavage at IC50 concentration after 48 hrs by Western blotting analysis. It counts as functional, cell-based.
For the next series, the system named is NCI60. Description: Growth inhibition of human NCI60 cells after 96 hrs incubation by sulforhodamine B technique. It counts as functional, cell-based.
Series [7] deals with HeLa. Description: Growth inhibition of human HeLa cells overexpressing beta-3 after 96 hrs incubation by sulforhodamine B technique. In kind it is functional, cell-based.
Series [8] has as its system HeLa. Description: Growth inhibition of wild type human HeLa cells after 96 hrs incubation by sulforhodamine B technique. In kind it is functional, cell-based.
Series [9] relates to U-251. The following applies: Homo sapiens, 25 mg/kg.
Description: Antitumor activity against human U251 cells xenografted into athymic NCr mouse assessed as decrease in tumor growth at 25 mg/kg twice weekly measured up to 34 days
Series [10] deals with Mus musculus. Description: Toxicity in athymic BALBc/J mouse xenografted with human MDA-MB-435 cells assessed as body weight at 25 mg/kg twice weekly. Set-up: dose 25 mg/kg. The following applies: in vivo. It counts as organism-based.
Series [11] relates to 4T1. To be noted: Mus musculus, 25 mg/kg.
Description: Antitumor activity against mouse 4T1 cells expressing luciferase allografted in BALBc/J mouse assessed as suppression of tumor growth at 25 mg/kg twice weekly measured up to 30 days
Series [12] relates to MDA-MB-435. Description: Cell cycle arrest in human MDA-MB-435 cells assessed as increase in accumulation at G2/M phase at IC50 concentration after 2 hrs by propidium iodide staining-based flow cytometry. It counts as functional.
The test system of series [13] is 4T1. The following applies: Mus musculus, 25 mg/kg. This is another data set of the same source.
Description: Antitumor activity against ip dosed mouse 4T1 cells expressing luciferase allografted in BALBc/J mouse assessed as reduction in lung metastases at 25 mg/kg twice weekly measured after 32 days
For series [14], the system named is MDA-MB-435. The following applies: Homo sapiens, 25 mg/kg. This is another data set of the same source.
Description: Antitumor activity against human MDA-MB-435 cells xenografted into flank of athymic BALBc/J mouse assessed as decrease in tumor vascular density at 25 mg/kg twice weekly by CD31/PECAM-1 immunohistochemical staining
Series [15] concerns 4T1. The experiment in a line: Antitumor activity against mouse 4T1 cells expressing luciferase allografted in BALBc/J mouse assessed as suppression of tumor growth at 35 mg/kg twice weekly measured up to 30 days. It counts as functional, organism-based. Further details: dose 35 mg/kg.
For series [16], the system named is MDA-MB-435. Description: Antitumor activity against human MDA-MB-435 cells xenografted into flank of […] assessed as decrease in tumor growth at 35 mg/kg twice weekly measured up to 34 days. In kind it is functional, organism-based. Set-up: dose 35 mg/kg.
Series [17] concerns 4T1. Description: Antitumor activity against ip dosed mouse 4T1 cells expressing luciferase allografted in BALBc/J mouse assessed as reduction in lung metastases at 35 mg/kg twice weekly measured after 32 days. It counts as functional, organism-based. Further details: dose 35 mg/kg.
For series [18], the system named is U-251. The experiment in a line: Antitumor activity against human U251 cells xenografted into athymic NCr mouse assessed as decrease in tumor growth at 35 mg/kg twice weekly measured up to 34 days. In kind it is functional, organism-based. Further details: dose 35 mg/kg.
The test system of series [19] is Mus musculus. Description: Toxicity in athymic NCr mouse xenografted with human cells at 35 mg/kg twice weekly measured up to 34 days. To be noted: in vivo, 816 h.
Series [20] concerns Mus musculus. The experiment in a line: Toxicity in athymic BALBc/J mouse xenografted with human MDA-MB-435 cells assessed as body weight at 35 mg/kg twice weekly. Further details: dose 35 mg/kg. It counts as organism-based. To be noted: in vivo.
Series [21] has as its system MDA-MB-435. The experiment in a line: Antitumor activity against human MDA-MB-435 cells xenografted into flank of athymic BALBc/J mouse assessed as decrease in tumor vascular density at 35 mg/kg twice weekly by CD31/PECAM-1 immunohistochemical staining. In kind it is functional, organism-based. Set-up: dose 35 mg/kg.
Series [22] has as its system Mus musculus. The experiment in a line: Toxicity in BALBc/J mouse allografted with mouse 4T1 cells at 35 mg/kg twice weekly measured up to 32 days. It counts as organism-based. Further details: dose 35 mg/kg. To be noted: in vivo, 768 h.
The test system of series [23] is Mus musculus. The experiment in a line: Toxicity in athymic NCr mouse at 30 mg/kg twice weekly measured up to 34 days. The following applies: in vivo, 816 h.
Series [24] has as its system MDA-MB-435. Description: Antitumor activity against human MDA-MB-435 cells xenografted into flank of […] assessed as decrease in tumor growth at 30 mg/kg twice weekly measured up to 34 days. It counts as functional, organism-based. Set-up: dose 30 mg/kg.
For series [25], the system named is MDA-MB-435. Description: Antitumor activity against human MDA-MB-435 cells xenografted into flank of athymic BALBc/J mouse assessed as decrease in tumor vascular density at 30 mg/kg twice weekly by CD31/PECAM-1 immunohistochemical staining. Set-up: dose 30 mg/kg. In kind it is functional, organism-based.
The subject of series [26] is U-251. The experiment in a line: Antitumor activity against human U251 cells xenografted into athymic NCr mouse assessed as decrease in tumor growth at 30 mg/kg twice weekly measured up to 34 days. Set-up: dose 30 mg/kg. In kind it is functional, organism-based.
Series [27] deals with Mus musculus. The experiment in a line: Toxicity in athymic BALBc/J mouse xenografted with human MDA-MB-435 cells assessed as body weight at 30 mg/kg twice weekly. It counts as organism-based. Set-up: dose 30 mg/kg. To be noted: in vivo.

Active and inactive are the calls of the source. The rule behind the calls is not given here. Bounds are passed on as bounds.

Description for Chorioallantoic membrane: Antiangiogenic activity in chicken chorioallantoic membrane assessed as inhibition of VEGF/bFGF-induced angiogenesis treated 8 hrs after VEGF/bFGF addition measured after 40 hrs by microscopy

`COc1ccc(N(C)c2nc(C)nc3c(Cc4ccccc4)c[nH]c23)cc1.Cl`: the inhibition result in the series on MDA-MB-435 [1], with U-251 [9], with 4T1 [11], with 4T1 [13] and with MDA-MB-435 [14] was “Active” throughout. In addition, the result with MDA-MB-435 [2], in the series filed under Homo sapiens, in the series on MDA-MB-435 [6] and with MDA-MB-435 [12] was Active. In addition, the concentration for half-maximal inhibition (IC50) (commonly the point on the concentration scale where inhibition reaches its midpoint) is 21000 nM on Tubulin; 700 nM with NCI/ADR-RES; 2900 nM in the series on Chorioallantoic membrane; 1000 nM in [5]; 280 nM in the series on HeLa [7]; 280 nM in the series with HeLa [8]. Besides, the Activity entry with Mus musculus [3], with Mus musculus [4] and with Mus musculus [10] was “Non-toxic” throughout. Also, the inhibition (in general, the relative decrease from the control value, in per cent) on Tubulin (Homo sapiens) worked out at 55%. In the series on NCI60, the “growth inhibition (GI)” value is “Active”.
In the case of `COc1ccc(Nc2nc(C)nc3c(Cc4ccccc4)c[nH]c23)c(OC)c1.Cl`, the IC50 against Tubulin was more than 40000 nM; in the series on NCI/ADR-RES, more than 5000 nM; in series [5], more than 5000 nM.
Consider `CC(=O)O[C@@]12CO[C@@H]1C[C@H](O)[C@@]1(C)C(=O)[C@H](O)C3=C(C)[C@@H](OC(=O)[C@H](O)[C@@H](NC(=O)OC(C)(C)C)c4ccccc4)C[C@@](O)([C@@H](OC(=O)c4ccccc4)[C@H]21)C3(C)C.O.O.O` [DOCETAXEL], for which the inhibition entry with 4T1 [15], in the series on MDA-MB-435 [16], in the series with 4T1 [17], in the series on U-251 [18] and in the series on MDA-MB-435 [21] was “Active” in each case. Besides, the Activity result in the series on Mus musculus [19], in the series with Mus musculus [20] and in the series on Mus musculus [22] was “Non-toxic” throughout.
In the case of `COc1ccc(Nc2nc(C)nc3c(Cc4ccccc4)c[nH]c23)cc1.Cl`, the half-inhibitory concentration (IC50) against Tubulin is more than 20000 nM; in the series on HeLa [7], more than 10000 nM; in the series with HeLa [8], more than 10000 nM.
As to `CCN(CC)CCNC(=O)c1c(C)[nH]c(/C=C2\C(=O)Nc3ccc(F)cc32)c1C` [SUNITINIB], the Activity entry in the series on Mus musculus [23] and in the series on Mus musculus [27] was “Non-toxic” each time. Also, the inhibition entry in the series on MDA-MB-435 [24], in the series with MDA-MB-435 [25] and in the series on U-251 [26] was “Active” in each case.
In turn, `COc1ccc(N(C)c2nc(C)nc3cc[nH]c23)cc1.Cl` gave an IC50 at Tubulin of 10000 nM.
Consider `CC(=O)O[C@H]1C(=O)[C@@]2(C)[C@H]([C@H](OC(=O)c3ccccc3)[C@]3(O)C[C@H](OC(=O)[C@H](O)[C@@H](NC(=O)c4ccccc4)c4ccccc4)C(C)=C1C3(C)C)[C@]1(OC(C)=O)CO[C@@H]1C[C@@H]2O` [PACLITAXEL], for which the concentration for half-maximal inhibition (IC50) with NCI/ADR-RES was found to be 5000 nM; in [5], 10 nM; in the series on HeLa [7], 16 nM; with HeLa [8], 5.3 nM.
Take `COc1ccc(/C=C\c2cc(OC)c(OC)c(OC)c2)cc1O` [COMBRETASTATIN A4]: the IC50 was determined as 2.5 nM in the series on HeLa [7] and 1.8 nM in the series with HeLa [8].
As to `Cc1nc(N(C)c2ccccc2)c2[nH]cc(Cc3ccccc3)c2n1.Cl`, the results for the IC50 on Tubulin, in the series with HeLa [7] and with HeLa [8] were more than 20000 nM, more than 10000 nM and more than 10000 nM, respectively.
